According to US6468969B1, “Inhibition of HIV-1 replication using d-amino acid peptides” (priority 1997, dated 2002):

Target: proteinase K (Parengyodontium album, UniProt P06873)
Experiment: Proteinase K digestion of peptide-TAR RNA photocrosslink products
Details: very vigorous proteinase K digestion
Experimental: For photochemical reactions, RNA duplex was prepared by hybridizing two strands ^24. Strand 1 of the duplex was 5′-end labeled with ^32P. Preformed RNA duplexes(0.02 μM) in the absence or presence of the peptide (0.1 μM) were irradiated ([…]) and analyzed by denaturing gels as described in Wang et al., Biochemistry 35, 6491-6499 (1996).

proteinase K, sequence (P06873 106-384): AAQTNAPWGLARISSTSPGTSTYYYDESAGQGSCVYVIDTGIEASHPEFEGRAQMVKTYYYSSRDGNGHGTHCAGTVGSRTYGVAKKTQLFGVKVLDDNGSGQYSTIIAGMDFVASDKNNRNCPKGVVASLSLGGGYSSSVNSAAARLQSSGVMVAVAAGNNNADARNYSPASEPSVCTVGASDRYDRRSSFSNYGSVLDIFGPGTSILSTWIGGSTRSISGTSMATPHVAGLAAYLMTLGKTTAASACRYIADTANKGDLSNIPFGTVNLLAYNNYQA

With `CC[C@@H](C)[C@@H](NC(=O)CNC(=O)[C@@H](CC(C)C)NC(=O)[C@@H](C)NC(=O)[C@@H](CCCCN)NC(=O)[C@H](NC(=O)[C@H](NC(=O)[C@@H](Cc1ccccc1)NC(=O)[C@H](N)CS)[C@H](C)O)[C@H](C)O)C(=O)N[C@H](CO)C(=O)N[C@H](Cc1ccc(O)cc1)C(=O)NCC(=O)N[C@H](CCCNC(=N)N)C(=O)N[C@H](CCCCN)C(=O)N[C@H](CCCCN)C(=O)N[C@H](CCCNC(=N)N)C(=O)N[C@H](CCCNC(=N)N)C(=O)N[C@H](CCC(N)=O)C(=O)N[C@H](CCCNC(=N)N)C(=O)N[C@H](CCCNC(=N)N)C(=O)N[C@H](CCCNC(=N)N)C(=O)N1CCC[C@@H]1C(=O)N1CCC[C@@H]1C(=O)N[C@H](CCC(N)=O)C(=O)NCC(=O)N[C@H](CO)C(=O)N[C@H](CCC(N)=O)C(=O)N[C@@H](C(=O)N[C@H](Cc1c[nH]cn1)C(=O)N[C@H](CCC(N)=O)C(=O)N[C@@H](C(=O)N[C@H](CO)C(=O)N[C@H](CC(C)C)C(=O)N[C@H](CO)C(=O)N[C@H](CCCCN)C(=O)N[C@H](CCC(N)=O)C(=O)O)C(C)C)[C@H](C)O` [D-Tat (37-72) peptide, D-Cys-D-Phe-D-Thr-D-Thr-D-Lys-D-Ala-D-Leu-D-Gly-D-Ile-D-Ser-D-Tyr-D-Gly-D-Arg-D-Lys-D-Lys-D-Arg-D-Arg-D-Gln-D-Arg-D-Arg-D-Arg-D-Pro-D-Pro-D-Gln-D-Gly-D-Ser-D-Gln-D-Thr-D-His-D-Gln-D-Val-D-Ser-D-Leu-D-Ser-D-Lys-D-Gln] the “protease stability of peptide-RNA crosslink products” value was “completely stable”.
